Laboratory results: publication PMC9115913 (Biological chemistry, 2022)
In brackets after ≈: the same amount, converted by molar mass. Several values for one entry are separate records, joined by “and”; a condition that tells them apart may be missing. Equal entries are not always repeated. Where two headings read alike, the source gives them in different places.

What was measured:
S. pneumoniae IU1945 = test: Antimicrobial susceptibility assay; type: cell-based; settings: Streptococcus pneumoniae
PBP1a = PBP1a (Streptococcus pneumoniae, UniProt Q8DR59); test: cell-based; type: binding; settings: IC50 PBPla
PBP1b = PBP1b (Streptococcus pneumoniae, UniProt Q7CRA4); type: binding; settings: read-out: IC50 PBP1b
PBP2x = PBP2x (Streptococcus pneumoniae, UniProt P59676); test: cell-based; type: binding
PBP2a = PBP2a (Streptococcus pneumoniae, UniProt Q8DNB6); test: cell-based; type: binding
PBP2b = PBP2b (Streptococcus pneumoniae, UniProt P0A3M6); test: cell-based; type: binding
PBP3 = molecular target: T1, PBP3 (Streptococcus pneumoniae, UniProt Q8DQ99); settings: read-out: IC50 PBP3
T1 sequence (Q8DQ99 23-413): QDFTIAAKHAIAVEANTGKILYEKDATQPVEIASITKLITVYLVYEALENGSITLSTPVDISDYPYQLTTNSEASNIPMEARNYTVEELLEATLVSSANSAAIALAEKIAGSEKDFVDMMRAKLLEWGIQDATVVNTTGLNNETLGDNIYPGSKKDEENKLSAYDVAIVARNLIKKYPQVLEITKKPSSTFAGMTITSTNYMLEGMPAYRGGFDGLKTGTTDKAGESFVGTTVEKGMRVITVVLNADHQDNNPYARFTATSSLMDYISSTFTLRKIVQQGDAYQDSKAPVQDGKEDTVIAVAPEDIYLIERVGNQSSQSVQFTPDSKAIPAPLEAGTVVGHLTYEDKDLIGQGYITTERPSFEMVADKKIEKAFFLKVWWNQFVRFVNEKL

[1] = tested on: penicillin-binding proteins (PBPs); settings: S. pneumoniae, previous assessment; ref Kocaoglu et al. 2015; cited from earlier work
[2] = tested on: penicillin-binding proteins (PBPs); settings: line of the Δpbp1b mutant strain; 4-fold rule
[3] = strain IU1945, average ± SEM of two experiments
[4] = Δpbp1b mutant strain, average ± SEM
[5] = Δpbp1a mutant strain, average ± SEM

Chain of PBP2a (Q8DNB6 whole entry): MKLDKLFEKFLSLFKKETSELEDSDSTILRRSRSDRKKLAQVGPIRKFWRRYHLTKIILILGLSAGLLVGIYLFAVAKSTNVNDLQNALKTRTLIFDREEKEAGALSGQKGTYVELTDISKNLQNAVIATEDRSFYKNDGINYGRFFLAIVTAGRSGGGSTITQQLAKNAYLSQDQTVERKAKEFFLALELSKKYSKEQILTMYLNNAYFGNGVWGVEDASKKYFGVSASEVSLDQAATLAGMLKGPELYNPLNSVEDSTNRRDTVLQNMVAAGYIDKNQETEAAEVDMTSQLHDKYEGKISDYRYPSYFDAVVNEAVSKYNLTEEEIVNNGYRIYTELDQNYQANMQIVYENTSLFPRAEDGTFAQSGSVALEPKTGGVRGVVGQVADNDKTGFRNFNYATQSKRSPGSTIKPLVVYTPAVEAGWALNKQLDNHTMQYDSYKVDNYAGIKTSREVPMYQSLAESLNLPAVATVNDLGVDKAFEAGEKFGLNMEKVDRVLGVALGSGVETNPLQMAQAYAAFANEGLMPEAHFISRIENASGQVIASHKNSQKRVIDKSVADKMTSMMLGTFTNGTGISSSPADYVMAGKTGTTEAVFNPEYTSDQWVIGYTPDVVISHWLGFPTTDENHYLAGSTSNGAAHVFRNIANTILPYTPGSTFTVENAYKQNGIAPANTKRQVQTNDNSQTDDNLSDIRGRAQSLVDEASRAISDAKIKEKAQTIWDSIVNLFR
Chain of PBP2b (P0A3M6 whole entry): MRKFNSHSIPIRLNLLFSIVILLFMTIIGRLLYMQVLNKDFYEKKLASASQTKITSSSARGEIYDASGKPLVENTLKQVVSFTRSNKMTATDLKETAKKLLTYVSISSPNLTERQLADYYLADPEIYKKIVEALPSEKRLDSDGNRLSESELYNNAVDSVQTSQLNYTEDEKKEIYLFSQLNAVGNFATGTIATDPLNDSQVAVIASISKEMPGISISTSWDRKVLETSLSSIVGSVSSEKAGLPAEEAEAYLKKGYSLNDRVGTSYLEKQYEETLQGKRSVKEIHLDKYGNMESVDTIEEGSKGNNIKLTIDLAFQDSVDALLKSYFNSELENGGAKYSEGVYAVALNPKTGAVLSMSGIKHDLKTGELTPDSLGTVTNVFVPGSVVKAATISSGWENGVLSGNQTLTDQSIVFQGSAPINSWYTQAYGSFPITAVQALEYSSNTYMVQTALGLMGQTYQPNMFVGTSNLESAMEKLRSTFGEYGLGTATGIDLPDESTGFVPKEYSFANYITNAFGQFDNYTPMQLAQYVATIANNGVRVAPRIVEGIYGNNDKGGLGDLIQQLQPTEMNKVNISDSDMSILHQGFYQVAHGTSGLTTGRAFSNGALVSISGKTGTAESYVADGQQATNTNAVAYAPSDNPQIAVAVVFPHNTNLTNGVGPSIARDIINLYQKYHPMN
Chain of PBP2x (P59676 whole entry): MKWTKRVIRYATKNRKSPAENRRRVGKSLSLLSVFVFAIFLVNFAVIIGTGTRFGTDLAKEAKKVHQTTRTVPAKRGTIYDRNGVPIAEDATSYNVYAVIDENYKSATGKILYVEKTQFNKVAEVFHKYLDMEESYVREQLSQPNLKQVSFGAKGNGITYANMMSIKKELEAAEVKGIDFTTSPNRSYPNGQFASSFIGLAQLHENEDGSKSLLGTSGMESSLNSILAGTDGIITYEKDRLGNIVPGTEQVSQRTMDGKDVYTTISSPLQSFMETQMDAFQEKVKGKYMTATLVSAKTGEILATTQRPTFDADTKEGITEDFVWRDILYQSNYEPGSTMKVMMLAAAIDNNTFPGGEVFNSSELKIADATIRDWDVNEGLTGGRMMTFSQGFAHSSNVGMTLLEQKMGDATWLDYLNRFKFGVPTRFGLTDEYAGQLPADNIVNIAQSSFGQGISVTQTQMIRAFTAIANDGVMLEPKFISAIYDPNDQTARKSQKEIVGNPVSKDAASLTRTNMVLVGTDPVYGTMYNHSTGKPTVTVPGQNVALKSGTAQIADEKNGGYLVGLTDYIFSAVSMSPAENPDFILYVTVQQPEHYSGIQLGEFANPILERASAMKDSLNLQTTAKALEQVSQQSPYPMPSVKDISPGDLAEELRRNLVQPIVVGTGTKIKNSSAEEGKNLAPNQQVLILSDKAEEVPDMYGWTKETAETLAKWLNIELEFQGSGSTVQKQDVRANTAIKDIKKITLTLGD
Chain of PBP1a (Q8DR59 whole entry): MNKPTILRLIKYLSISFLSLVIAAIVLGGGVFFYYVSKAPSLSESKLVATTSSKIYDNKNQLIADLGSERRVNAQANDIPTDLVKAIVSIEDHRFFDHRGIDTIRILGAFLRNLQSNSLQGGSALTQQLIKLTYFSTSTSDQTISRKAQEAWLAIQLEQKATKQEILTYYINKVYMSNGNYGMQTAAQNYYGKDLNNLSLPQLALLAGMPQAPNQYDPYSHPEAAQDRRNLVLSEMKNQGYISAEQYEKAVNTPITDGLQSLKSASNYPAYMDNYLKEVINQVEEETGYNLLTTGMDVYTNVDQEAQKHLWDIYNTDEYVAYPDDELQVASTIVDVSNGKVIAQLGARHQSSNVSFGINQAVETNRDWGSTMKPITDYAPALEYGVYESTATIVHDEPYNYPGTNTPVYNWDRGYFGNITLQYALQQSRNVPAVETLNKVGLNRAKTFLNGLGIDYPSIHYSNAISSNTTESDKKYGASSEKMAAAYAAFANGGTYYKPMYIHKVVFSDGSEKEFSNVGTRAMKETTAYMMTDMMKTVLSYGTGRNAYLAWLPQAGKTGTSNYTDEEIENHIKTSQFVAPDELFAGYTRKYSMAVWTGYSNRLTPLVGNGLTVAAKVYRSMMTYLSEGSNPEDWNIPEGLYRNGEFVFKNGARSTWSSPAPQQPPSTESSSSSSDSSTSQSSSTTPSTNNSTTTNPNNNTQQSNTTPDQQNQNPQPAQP

Row | Compound | MIC (S. pneumoniae IU1945) [µM] | IC50 (PBP1a; [3]) [µM] | IC50 (PBP1b; [3]) [µM] | IC50 (PBP2x; [3]) | IC50 (PBP2a; [3]) [µM] | IC50 (PBP2b; [3]) [µM] | IC50 (PBP3; [3]) | PBP selectivity (previous report) [1] | IC50 (PBP1a; [4]) [µM] | IC50 (PBP1b; [5]) [µM] | IC50 (PBP2x; [5]) [µM] | IC50 (PBP2x; [4]) [µM] | IC50 (PBP2a; [5]) [µM] | IC50 (PBP2a; [4]) [µM] | IC50 (PBP2b; [5]) [µM] | IC50 (PBP2b; [4]) [µM] | IC50 (PBP3; [5]) [µM] | IC50 (PBP3; [4]) [µM] | PBP selectivity [2]
1 | C=CC1=C(C(=O)O)N2C(=O)[C@@H](NC(=O)/C(=N\OCC(=O)O)c3csc(N)n3)[C@H]2SC1 [Cefixime, cefixime] | 0.1 (≈ 45.3 ng/mL) | 32.3 ± 34.4 | 8.96 ± 4.6 | 0.336 ± 0.224 µM | 4.85 ± 2.06 | > 1000 | 0.026 ± 0.007 µM |  |  |  |  |  |  |  |  |  |  |  | 
2 | N[C@@H](C(=O)N[C@@H]1C(=O)N2C(C(=O)O)=C(Cl)CS[C@H]12)c1ccccc1 [Cefaclor, cefaclor] | 10 (≈ 3680 ng/mL) | 3.6 ± 1.33 | 8.59 ± 3.63 | 3.67 ± 2.52 µM |  | 55.4 ± 26.3 | 0.034 ± 0.009 µM |  |  |  |  |  |  |  |  |  |  |  | 
3 | CO/N=C(\C(=O)N[C@@H]1C(=O)N2C(C(=O)[O-])=C(C[n+]3cccc4c3CCC4)CS[C@H]12)c1csc(N)n1 [Cefpirome, cefpirome] | 0.01 (≈ 5.15 ng/mL) | 0.051 ± 0.011 | 0.024 ± 0.008 | 0.002 ± 0.001 µM | 0.016 ± 0.004 | 5.53 ± 2.99 |  |  |  |  |  |  |  |  |  |  |  |  | 
4 | C[C@@H](O)[C@H]1C(=O)N2C(C(=O)O)=C(S[C@@H]3CN[C@H](CNS(N)(=O)=O)C3)[C@H](C)[C@H]12 [Doripenem, doripenem] |  |  |  |  |  |  |  | co-selectivity towards PBP3 along with PBP1a, but these molecules were additionally co-selective for PBP2x |  |  |  |  |  |  |  |  |  |  | 
5 | CO/N=C(\C(=O)N[C@@H]1C(=O)N2C(C(=O)[O-])=C(C[N+]3(C)CCCC3)CS[C@H]12)c1csc(N)n1 [Cefepime, cefepime] | 0.01 (≈ 4.81 ng/mL) |  |  |  |  |  |  |  |  |  |  |  |  |  |  |  |  |  | 
6 | CO[C@@]1(NC(=O)C2SC(=C(C(N)=O)C(=O)O)S2)C(=O)N2C(C(=O)O)=C(CSc3nnnn3C)CS[C@@H]21 (stereo partly shown) [Cefotetan, cefotetan] | 1 (≈ 576 ng/mL) | 14.6 ± 6.7 | 0.538 ± 0.201 | 14.4 ± 5.77 µM | 54.3 ± 21.5 |  | 0.069 ± 0.015 µM |  |  |  |  |  |  |  |  |  |  |  | 
7 | CC1(C)S[C@@H]2[C@H](NC(=O)[C@H](C(=O)O)c3ccsc3)C(=O)N2[C@H]1C(=O)O [Ticarcillin, ticarcillin] |  | 0.827 ± 0.365 | 1.01 ± 0.331 | 0.251 ± 0.109 µM | 7.74 ± 2.6 | 3.34 ± 1.48 | 0.146 ± 0.087 µM |  |  |  |  |  |  |  |  |  |  |  | 
8 | C[C@@H](O)[C@H]1C(=O)N2C(C(=O)[O-])=C(SC3Cn4cnc[n+]4C3)[C@H](C)[C@H]12 (stereo partly shown) [Biapenem, biapenem] | 0.01 (≈ 3.5 ng/mL) | 0.06 ± 0.021 | 6.82 ± 4.15 |  | 0.146 | 0.111 ± 0.106 | 0.006 ± 0.001 µM |  |  |  |  |  |  |  |  |  |  |  | 
9 | C[C@@H](O)[C@H]1C(=O)N2C(C(=O)O)=C(SCCN=CN)C[C@H]12 [Imipenem, imipenem] | 0.1 (≈ 29.9 ng/mL) | 0.027 ± 0.005 | 0.052 ± 0.022 | 0.048 ± 0.013 µM | 0.062 ± 0.021 | 0.052 ± 0.011 | 0.007 ± 0.001 µM |  |  |  |  |  |  |  |  |  |  |  | 
10 | Cc1onc(-c2ccccc2Cl)c1C(=O)N[C@@H]1C(=O)N2[C@@H]1SC(C)(C)[C@@H]2C(=O)O [Cloxacillin, cloxacillin] |  | 0.561 ± 0.219 | 0.977 ± 0.372 | 0.119 ± 0.062 µM | 4.47 ± 2.24 | 2.36 ± 1.77 | 0.102 ± 0.092 µM |  |  |  |  |  |  |  |  |  |  |  | 
11 | Cc1onc(-c2c(Cl)cccc2Cl)c1C(=O)N[C@@H]1C(=O)N2[C@@H]1SC(C)(C)[C@@H]2C(=O)O [Dicloxacillin, dicloxacillin] | 0.01 (≈ 4.7 ng/mL) | 0.385 ± 0.261 | 1.14 ± 1.37 | 0.042 ± 0.055 µM | 4.84 ± 4.74 | 8.7 | 0.065 ± 0.051 µM |  |  |  |  |  |  |  |  |  |  |  | 
12 | CC1(C)S[C@@H]2[C@H](NC(=O)[C@H](NC(=O)N3CCNC3=O)c3ccccc3)C(=O)N2[C@H]1C(=O)O [Azlocillin, azlocillin] |  | 1.53 ± 0.532 | 0.963 ± 0.477 | 0.081 ± 0.018 µM | 1.4 ± 0.693 | 0.294 ± 0.131 | 0.065 ± 0.013 µM |  |  |  |  |  |  |  |  |  |  |  | 
13 | Cc1onc(-c2c(F)cccc2Cl)c1C(=O)N[C@@H]1C(=O)N2[C@@H]1SC(C)(C)[C@@H]2C(=O)O [Flucloxacillin, flucloxacillin] | 1 (≈ 454 ng/mL) | 12.4 ± 4.2 | 17.7 ± 4.16 | 0.83 µM and 0.832 µM | 35.3 ± 26 | 18.5 ± 11.1 | 0.91 µM and 0.911 µM |  | 11 ± 2.47 | 50.5 ± 2.03 | 0.889 ± 0.389 | 2.01 ± 0.878 | 16 ± 2.01 | 51.5 ± 5.16 | 16.8 ± 9.3 | 33.5 ± 16 | 0.783 ± 0.581 | 1.95 ± 0.884 | 
14 | CC1(C)S[C@@H]2[C@H](NC(=O)C(C(=O)O)c3ccccc3)C(=O)N2[C@H]1C(=O)O (stereo partly shown) [Carbenicillin, carbenicillin] | 0.1 (≈ 37.8 ng/mL) | 1.11 ± 0.367 | 0.859 ± 0.285 | 0.962 ± 0.506 µM | 5.64 ± 4.47 | 2.12 ± 1.15 | 0.018 ± 0.011 µM |  |  |  |  |  |  |  |  |  |  |  | 
15 | CCOc1ccc2ccccc2c1C(=O)N[C@@H]1C(=O)N2[C@@H]1SC(C)(C)[C@@H]2C(=O)O [Nafcillin, nafcillin] | 0.01 (≈ 4.14 ng/mL) | 94.5 ± 88.6 | 32.4 ± 3.78 | 0.014 ± 0.006 µM | 4.54 ± 1.75 | 1.27 ± 0.306 | 0.125 ± 0.061 µM |  |  |  |  |  |  |  |  |  |  |  | 
16 | C[C@@H](O)[C@H]1C(=O)N2C(C(=O)O)=C(S[C@@H]3CN[C@H](C(=O)N(C)C)C3)[C@H](C)[C@H]12 [Meropenem, meropenem] |  |  |  |  |  |  |  | co-selectivity towards PBP3 along with PBP1a, but these molecules were additionally co-selective for PBP2x |  |  |  |  |  |  |  |  |  |  | 
17 | COCC1=C(C(=O)O)N2C(=O)[C@@H](NC(=O)/C(=N\OC)c3csc(N)n3)[C@H]2SC1 [Cefpodoxime, cefpodoxime] | 0.01 (≈ 4.27 ng/mL) | 1.92 ± 0.581 | 0.907 ± 0.406 | 0.041 ± 0.015 µM | 0.341 ± 0.125 | 0.522 ± 0.231 | 0.032 ± 0.005 µM |  | 2.78 ± 0.886 | 0.301 ± 0.071 |  | 0.035 ± 0.018 | 0.621 ± 0.161 | 0.179 ± 0.081 | > 1000 | > 1000 | 0.032 ± 0.004 | 0.018 ± 0.004 | 
18 | C[C@@H](O)[C@H]1C(=O)N2C(C(=O)O)=C(S[C@@H]3CN[C@H](C(=O)Nc4cccc(C(=O)O)c4)C3)[C@H](C)[C@H]12 [Ertapenem, ertapenem] | 0.01 (≈ 4.76 ng/mL) | 0.118 ± 0.064 | 0.137 ± 0.375 | 0.752 ± 0.817 µM | 26.8 ± 4.08 | 13.8 ± 3.49 | 0.061 ± 0.043 µM |  | 0.038 ± 0.012 | 0.326 ± 0.082 | 0.341 ± 0.251 | 0.729 ± 0.122 |  | 6.69 ± 0.401 | 3.86 ± 7.4 | > 1000 | 0.012 ± 0.006 | 0.031 ± 0.011 | co-selectivity towards PBP3 and PBP1a and 3, la
